According to US11078182B2, “Heteroaromatic compounds as Vanin inhibitors” (Boehringer Ingelheim International GmbH, priority 2018, dated 2021):

Legend:
[1] = target: FLAG-tagged Vanin-1 (AA 22-493, T26I) (Homo sapiens (Human), UniProt O95497, T26I); assay: Vanin-1 enzymatic assay; format: biochemical; details: 0.1 nM Vanin-1, 3 μM D-pantethine, pantothenic acid formation by RapidFire MS; geometric mean if multiple measurements; read-out: VNN 1 IC50
Description: The test compounds are dissolved in 100% DMSO at a concentration of 10 mM and in a first step diluted in DMSO to a concentration of 5 mM, followed by serial dilution steps in 100% DMSO. Dilution factor and number of dilution steps may vary according to needs. Typically 8 different concentrations by 1:5 dilutions are prepared, a further intermediate dilutions of the substances is carried out with assay buffer resulting in 1% final DMSO concentration in the assay.
0.1 nM of FLAG-tagged Vanin-1 (AA 22-493, T26I, produced internally) and test compounds are incubated at room temperature for 20 minutes in assay buffer (1 mM DTT, 0.0025% Brij-35, 50 mM HEPES, pH7.5). D-Pantethine (Sigma, Cat #P2125-5G) in assay buffer is added (final concentration 3 μM) and incubated for additional 30 minutes at room temperature. Total assay volume typically is 40 μl but might be adjusted according to needs. Reaction is stopped by adding equal volume of stop solution as the reaction mixture to reach 100 nM HD-pantothenic acid (as an internal standard) and 1% TFA. Assay plates are centrifuged for 2 minutes and the formation of pantothenic acid is detected by RapidFire Mass Spectrometry (mobile phase A: 0.1% formic acid and 0.01% trifluoroacetic acid in water; mobile phase B: 47.5% acetonitrile, 47.5% methanol, 0.1% formic acid and 0.01% trifluoroacetic acid in water) using a C18, 12 μL cartridge (Agilent Cat #G9205A).
The values given in Table I result from measurements of one or more samples. In case of multiple measurements the geometric mean values are given.

Pantetheinase (vanin) = assay: Human Whole Blood assay; format: cell-based; details: pantethine substrate, pantothenic acid formation by RapidFire MS, read-out: HWB IC50
Description: Pantetheinase (vanin) converts panteheine into pantothenic acid and cysteamine. Accordingly, in the described protocol vanin activity is quantified by formation of pantothenic acid after pantetheine supplementation via pantethine. The assay is applicable to identify vanin inhibitors. Compound stocks are dissolved in DMSO at 10 mM. Further dilutions are performed in RPMI 1640 medium (Gibco, #A-10491-01) and final concentrations in the assay are 0.032 nM-500 nM.
Human blood is drawn into a blood bag (1% heparin, 50 I.E./mL). Blood is aliquoted into cavities of 96-deep-well plates at 290 μL and mixed with 10 μL compound solution or vehicle (30 sec at 1400 rpm on a shaker). Equilibration follows at room temperature, 250 rpm and for 30 min. The assay is starts by adding 10 μL of substrate solution (20 μM pantethine in 1 mM DTT, 0.0025% Brij-35, 50 mM HEPES, pH7.5) to each well, except for some blank wells which receive […] substrate buffer (1 mM DTT, 0.0025% Brij-35, 50 mM HEPES, pH7.5) only. Samples are thoroughly shaken (30 sec, 1400 rpm) and reaction is allowed to take place at room temperature, 250 rpm and for 5 min. The reaction is stopped by addition of a vanin tool inhibitor in excess (BI-1 total conc. 10 μM). Centrifugation of the plate follows at 4° C., 665 G for 10 min. Then the blood plasma samples (100 μL) are transferred into another 96-deep-well plate and proteins are precipitated (5 min on ice) by adding 100 μL of ice cold precipitation solution (1 μM labelled pantothenic acid (di-β-alanine-13C6,15N2 calcium salt, Sigma, #705837) in acetonitrile). Afterwards the plate is centrifuged (4° C., 3220 G, 10 min) and supernatants (50 μL) are collected into another 96-deep-well plate and mixed (10 sec, 1400 rpm) with 150 μL ice cold formic acid (0.1%, Carl Roth GmbH+Co.KG, #CP03.1). The formation of pantothenic acid is detected by RapidFire Mass Spectrometry. A TripleQuad 6500+ (ABSciex, Germany) is equipped with an LC-1290 system, a RapidFire autosampler (Agilent, Germany) and a C18 cartridge Type C 12 μL (Agilent Cat #G9526-80000). Mobile phase A is consisting of 0.09% formic acid and 0.01% trifluoroacetic acid in water and mobile phase B of 0.09% formic acid and 0.01% trifluoroacetic acid in acetonitrile/methanol/water=47.5/47.5/5.

Sequence of FLAG-tagged Vanin-1 (AA 22-493, T26I) (O95497 22-493 T26I): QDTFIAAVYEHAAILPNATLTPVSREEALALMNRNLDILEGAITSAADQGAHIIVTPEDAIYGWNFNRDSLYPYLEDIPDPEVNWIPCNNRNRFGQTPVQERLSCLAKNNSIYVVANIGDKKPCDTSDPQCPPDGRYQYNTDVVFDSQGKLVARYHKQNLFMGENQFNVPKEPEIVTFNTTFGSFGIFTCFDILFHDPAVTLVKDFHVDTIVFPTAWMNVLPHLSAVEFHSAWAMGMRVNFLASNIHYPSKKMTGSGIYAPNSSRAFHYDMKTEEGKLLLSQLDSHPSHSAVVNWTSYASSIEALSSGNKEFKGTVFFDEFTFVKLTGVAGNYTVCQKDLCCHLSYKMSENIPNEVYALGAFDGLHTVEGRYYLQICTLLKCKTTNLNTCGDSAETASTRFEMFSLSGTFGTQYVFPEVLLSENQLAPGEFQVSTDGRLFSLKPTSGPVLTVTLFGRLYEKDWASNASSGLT

| SMILES | IC50 [1] [nM] | IC50 (Pantetheinase (vanin)) [nM] |
| --- | --- | --- |
| CC1(C#N)CCN(C(=O)c2ccc(NC(C)(C)C)nc2)C1 (single isomer, unassigned) [Example 7, 1-[6-(tert-Butylamino)pyridine-3-carbonyl]-3-methylpyrrolidine-3-carbonitrile] | 0.3 | 3.9 |
| CN(C(=O)C1CCC1)[C@H]1CCN(C(=O)c2ccc(NC(C)(C)C)nc2)C1 [Example 1.1, N-[(3S)-1-[6-(tert-Butylamino)pyridine-3-carbonyl]pyrrolidin-3-yl]-N-methylcyclobutanecarboxamide] | 0.2 | 4.3 |
| CN(C(=O)C1CC(F)(F)C1)[C@H]1CCN(C(=O)c2ccc(NC(C)(C)C)nc2)C1 [Example 1.2] | 0.2 | 3.6 |
| CN(C(=O)[C@@H]1CCCO1)[C@H]1CCN(C(=O)c2ccc(NC(C)(C)C)nc2)C1 [Example 1.3] | 0.3 | 2.7 |
| CN(C(=O)c1ccc(Cl)s1)[C@H]1CCN(C(=O)c2ccc(NC(C)(C)C)nc2)C1 [Example 1.4] | 0.3 | 25.2 |
| CN(C(=O)C1CC1)[C@H]1CCN(C(=O)c2ccc(NC(C)(C)C)nc2)C1 [Example 1.5] | 0.3 | 4.2 |
| CC(C)(C)Nc1ccc(C(=O)N2CC[C@H](N3CCOC3=O)C2)cn1 [Example 1.6] | 0.3 | 4 |
| CN(C(=O)c1cc(C(F)(F)F)nn1C)[C@H]1CCN(C(=O)c2ccc(NC(C)(C)C)nc2)C1 [Example 1.7] | 0.3 | 5 |
| CN(C(=O)C1(C#N)CC1)[C@H]1CCN(C(=O)c2ccc(NC(C)(C)C)nc2)C1 [Example 1.8] | 0.3 | 5.8 |
| CC(C)(C)Nc1ccc(C(=O)N2CC[C@H](N3CCCC3=O)C2)cn1 [Example 1.9] | 0.4 | 3.1 |
| CN(C(=O)C1CCOC1)[C@H]1CCN(C(=O)c2ccc(NC(C)(C)C)nc2)C1 (some centres unmarked) [Example 1.10] | 0.4 | – |
| CN(C(=O)c1ccc(F)cc1)[C@H]1CCN(C(=O)c2ccc(NC(C)(C)C)nc2)C1 [Example 1.11] | 0.4 | 7.5 |
| Cc1cc(C(=O)N(C)[C@H]2CCN(C(=O)c3ccc(NC(C)(C)C)nc3)C2)[nH]n1 [Example 1.12] | 0.4 | 9.7 |
| CN(c1ncccn1)[C@H]1CCN(C(=O)c2ccc(NC(C)(C)C)nc2)C1 [Example 1.13] | 0.4 | 12.6 |
| CC(C)(C)Nc1ccc(C(=O)N2CC[C@H](N3CCCCC3=O)C2)cn1 [Example 1.14] | 0.8 | 12.5 |
| CN(C(=O)[C@H]1CCCO1)[C@H]1CCN(C(=O)c2ccc(NC(C)(C)C)nc2)C1 [Example 1.15] | 1 | – |
| CN(C(=O)CN1CCOCC1)[C@H]1CCN(C(=O)c2ccc(NC(C)(C)C)nc2)C1 [Example 1.16] | 1.3 | – |

| SMILES | IC50 [1] [nM] | IC50 (Pantetheinase (vanin)) [nM] |
| --- | --- | --- |
| CN(C(=O)C1CC1)[C@H]1CCN(C(=O)c2ccc(NC3(C)CCC3)nc2)C1 [Example 2.1, N-Methyl-N-[(3S)-1-{6-[(1-methylcyclobutyl)amino]pyridine-3-carbonyl}pyrrolidin-3-yl]cyclopropanecarboxamide] | 0.3 | 4.6 |
| CC(=O)N(C)[C@H]1CCN(C(=O)c2ccc(NC(C)(C)C(C)C)nc2)C1 [Example 2.2] | 0.4 | 7.7 |
| CN(C(=O)C1CC1)[C@H]1CCN(C(=O)c2ccc(NC3(C)CCCC3)nc2)C1 [Example 2.3] | 0.7 | – |
| CC1(Nc2ccc(C(=O)N3CC[C@H](N4CCCC4=O)C3)cn2)CCCCC1 [Example 2.4] | 1.7 | – |
| CN(C(=O)C1CC1)[C@H]1CCN(C(=O)c2ccc(NC3(C)CCOCC3)nc2)C1 [Example 2.5] | 7.3 | – |
| CN(C(=O)C1CC1)[C@H]1CCN(C(=O)c2ccc(NC34CC(C3)C4)nc2)C1 [Example 2.6] | 0.4 | 9.2 |
| CC(=O)N(C)[C@H]1CCN(C(=O)c2ccc(NC(C)(C)CCO)nc2)C1 [Example 3.1, N-[(3S)-1-{6-[(4-Hydroxy-2-methylbutan-2-yl)amino]pyridine-3-carbonyl}pyrrolidin-3-yl]-N-methylacetamide] | 0.2 | 1.6 |
| CCC(C)(C)Nc1ccc(C(=O)N2CC[C@H](N(C)C(C)=O)C2)cn1 [Example 3.2] | 0.2 | 3.1 |
| CC(=O)N(C)[C@H]1CCN(C(=O)c2ccc(NC(C)(C)Cc3ccc(F)cc3)nc2)C1 [Example 3.3] | 0.4 | 8.7 |
| CC(=O)N(C)[C@H]1CCN(C(=O)c2ccc(NC(C)(C)CCn3cncn3)nc2)C1 [Example 3.4] | 2.1 | – |
| CN(C(=O)N1CCOCC1)[C@H]1CCN(C(=O)c2ccc(NC(C)(C)C)nc2)C1 [Example 4.1, N-[(3S)-1-[6-(tert-Butylamino)pyridine-3-carbonyl]pyrrolidin-3-yl]-N-methylmorpholine-4-carboxamide] | 0.3 | 3.2 |
| CN1CCN(C(=O)N(C)[C@H]2CCN(C(=O)c3ccc(NC(C)(C)C)nc3)C2)CC1 [Example 4.2] | 1.2 | – |
| CC(=O)N(C)[C@H]1CCN(C(=O)c2ccc(NC(C)(C)C)nc2)C1 [Example 5.1, N-[(3S)-1-[6-(tert-Butylamino)pyridine-3-carbonyl]pyrrolidin-3-yl]-N-methylacetamide] | 0.5 | 3.2 |
| CC(=O)N(C)[C@@H]1CCN(C(=O)c2ccc(NC(C)(C)C)nc2)C1 [Example 5.2] | – | 267 |
| CC1CN([C@H]2CCN(C(=O)c3ccc(NC(C)(C)C)nc3)C2)C(=O)O1 (stereo partly drawn) [Example 6, 3-[(3S)-1-[6-(tert-Butylamino)pyridine-3-carbonyl]pyrrolidin-3-yl]-5-methyl-1,3-oxazolidin-2-one] | 1.6 | – |
| CC(C)(C)Nc1ccc(C(=O)N2CC(C)(c3ccccn3)C2)cn1 [Example 8, N-tert-Butyl-5-[3-methyl-3-(pyridin-2-yl)azetidine-1-carbonyl]pyridin-2-amine] | 0.3 | 2.7 |
